Source: patent US6855715B1, “Serine protease inhibitors” (Eli Lilly and Company, priority 1999, dated 2005)

How the values were obtained:
[1] = system: plasma; experiment: Partial Thromboplastin Time (Prothrombin) Test Protocol; assay type: biochemical; conditions: concentration of the solution added; final concentration in the assay mixture is one third of this value; Example 66 and comparison compounds: average of 3 tests
Method: The ability of a test compound to elongate Partial Thromboplastin Time (Prothrombin Time) may be evaluated in the following test protocols.
Partial Thromboplastin Time (Prothrombin) Test Protocol Venous blood was collected into 3.2% (0.109 m) trisodium citrate vacutainer tubes at 1 volume of anticoagulant to nine volumes of blood. The blood cells were separated by centrifugation at 700 g for ten minutes to yield plasma, which was frozen at […] until required.
To perform the test, 100 μl of plasma was pipetted into in a glass test tube, 1 μl of test compound in DMSO was added, and allowed to warm to 37° over two minutes. 100 μl of warm (37°) Manchester (tissue thromboplasin) reagent (Helena Biosciences, UK) was added, allowed to equilibrate for two minutes. 100 μl of warm (37°) 25 mM calcium chloride solution was added to initiate clotting. The test tube was tilted three times through a 90° angle every five seconds to mix the reagents and the time to clot formation recorded. Data from a series of observations and test compound concentrations are analysed by a SAS statistical analysis program and a CT2 (Concentration required to double clotting time) for each compound is generated.

melting point	Compound	Conc. necessary to double the prothrombin time [1] [µM]
172 to 180 °C (dec.)	COc1ccc(C(=O)N[C@@H](C(=O)N2CCN(CC3CCN(C(C)C)CC3)CC2)c2ccccc2)cc1.Cl	
	1-(3,4 Diaminobenzoyl-D-phenylglycinyl)-4-(4-fluoro-2-methylsulphonylphenyl)piperazine [Example 32]	11
190 to 192 °C	COc1ccc(C(=O)N[C@@H](C(=O)N2CCN(CCC3CCCC3)CC2)c2ccccc2)cc1.Cl.O (hydrate or solvate)	
	CS(=O)(=O)c1cc(F)ccc1N1CCN(C(=O)[C@H](NC(=O)c2ccc3ccnc(N)c3c2)c2ccccc2)CC1.O=C(O)C(F)(F)F.O=C(O)C(F)(F)F [1-aminoisoquinolin-7-oyl-D-phenylglycine-4-(4-fluoro-2-methanesulfonylphenyl)-piperazinamide ditrifluoroactetate salt, reference compound]	45
	Nc1cc2ccccc2cc1C(=O)N[C@@H](C(=O)N1CCC(C2CCNCC2)CC1)c1ccccc1 [Example 8, 1-(3-Amino-2-naphthoyl-D-phenylglycinyl)-4,4′-bispiperidine]	26
	CS(=O)(=O)c1cc(F)ccc1N1CCN(C(=O)[C@H](NC(=O)c2cc(N)ccc2N)c2ccccc2)CC1 [Example 27, 1-(2,5-Diaminobenzoyl-D-phenylglycinyl)-4-(4-fluoro-2-methylsulphonylphenyl)piperazine]	6.7
	CS(=O)(=O)c1cc(F)ccc1N1CCN(C(=O)[C@H](NC(=O)c2cccc(N)c2)c2ccccc2)CC1 [Example 30, 1-(3-Aminobenzoyl-D-phenylglycinyl)-4-(4-fluoro-2-methylsulphonylphenyl)piperazine]	7.8
	Cc1ccc(C(=O)N[C@@H](C(=O)N2CCN(c3ccc(F)cc3S(C)(=O)=O)CC2)c2ccccc2)cc1N [Example 38, 1-(3-Amino-4-methylbenzoyl-D-phenylglycinyl)-4-(4-fluoro-2-methylsulphonylphenyl)piperazine]	9.0
	COc1ccc(C(=O)N[C@@H](C(=O)N2CCN(c3ccc(F)cc3S(C)(=O)=O)CC2)c2ccccc2)cc1 [Example 39, 1-(4-Methoxybenzoyl-D-phenylglycinyl)-4-(4-fluoro-2-methylsulphonylphenyl)piperazine]	12
	COc1ccc(C(=O)N[C@@H](C(=O)N2CCN(c3ccc(F)cc3S(C)(=O)=O)CC2)c2ccccc2)cc1N [Example 40, 1-(3-Amino-4-methoxybenzoyl-D-phenylglycinyl)-4-(4-fluoro-2-methylsulphonylphenyl)piperazine]	12
	CN1CCC(C2CCN(C(=O)[C@H](NC(=O)c3cccc(N)c3)c3ccccc3)CC2)CC1 [Example 62, 1-(3-Aminobenzoyl-D-phonylglycinyl)-1′-methyl-4,4′-bispiperidine]	8.6
	CN1CCC(C2CCN(C(=O)[C@H](NC(=O)c3ccc(Cl)c(N)c3)c3ccccc3)CC2)CC1 [Example 63, 1-(3-Amino-4-chlorobenzoyl-D-phenylglycinyl)-1′-methyl-4,4′-bispiperidine]	2.1
	Cc1ccc(C(=O)N[C@@H](C(=O)N2CCC(C3CCN(C)CC3)CC2)c2ccccc2)cc1N [Example 64, 1-(3-Amino-4-methylbenzoyl-D-phenylglycinyl)-1′-methyl-4,4′-bispiperidine]	4.4
	CN1CCC(C2CCN(C(=O)[C@H](NC(=O)c3cc4ccccc4cc3N)c3ccccc3)CC2)CC1 [Example 65, 1-(3-Aminonaphth-2-oyl-D-phenylglycinyl)-1′-methyl-4,4′-bispiperidine]	6.1
	CN1CCC(C2CCN(C(=O)[C@H](NC(=O)c3ccc4cc[nH]c4c3)c3ccccc3)CC2)CC1 [Example 66, 1-(Indol-6-carbonyl-D-phenylglycinyl)-1′-methyl-4,4′-bispiperidine]	2.1
	CN1CCC(C2CCN(C(=O)[C@H](NC(=O)c3ccc(Br)c(N)c3)c3ccccc3)CC2)CC1 [Example 68, 1-(3-Amino-4-bromobenzoyl-D-phenylglycinyl)-1′-methyl-4,4′-bispiperidine]	3.6
	COc1ccc(C(=O)N[C@@H](C(=O)N2CCC(C3CCN(C)CC3)CC2)c2ccccc2)cc1N [Example 69, 1-(3-Amino-4-methoxybenzoyl-D-phenylglycinyl)-1′-methyl-4,4′-bispiperidine]	5.8
	CNc1ccc(C(=O)N[C@@H](C(=O)N2CCC(C3CCN(C)CC3)CC2)c2ccccc2)cc1 [Example 70, 1-(4-(Methylamino)benzoyl-D-phenylglycinyl)-1′-methyl-4,4′-bispiperidine]	4.0
230 to 238 °C	COc1ccc(C(=O)N[C@@H](CNC(=O)c2ccc(C)cc2)c2ccccc2)cc1 [Example 254, (R)-N-[2-(4-Methoxybenzoylamino)-2-phenylethyl]-4-methylbenzamide]	
222 to 229 °C	CCc1ccc(C(=O)NC[C@H](NC(=O)c2ccc(OC)cc2)c2ccccc2)cc1 [Example 255, (R)-N-[2-(4-Methoxybenzoylamino)-2-phenylethyl]-4-ethylbenzamide]	
239 to 244 °C	COc1ccc(C(=O)N[C@@H](CNC(=O)c2ccc(C(C)C)cc2)c2ccccc2)cc1 [Example 256, (R)-N-[2-(4-Methoxybenzoylamino)-2-phenylethyl]-4-isopropylbenzamide]	
171 to 175 °C	COc1ccc(C(=O)N[C@@H](CNC(=O)c2ccc(C(C)(C)C)cc2)c2ccccc2)cc1 [Example 257, (R)-N-[2-(4-Methoxybenzoylamino)-2-phenylethyl]-4-tert-butylbenzamide]	
253 to 257 °C	COc1ccc(C(=O)N[C@@H](CNC(=O)C2CCN(C3CCCC3)CC2)c2ccccc2)cc1 [Example 259, (R)-N-[2-(4-Methoxybenzoylamino)-2-phenylethyl]-1-cyclopentylpiperidine-4-carboxamide]	
239 to 243 °C	COc1ccc(C(=O)N[C@@H](CNC(=O)C2CCN(C3CCCCC3)CC2)c2ccccc2)cc1 [Example 260, (R)-N-[2-(4-Methoxybenzoylamino)-2-phenylethyl]-1-cyclohexylpiperidine-4-carboxamide]	
245 to 251 °C	CCN1CCC(C(=O)NC[C@H](NC(=O)c2ccc(OC)cc2)c2ccccc2)CC1 [Example 261, (R)-N-[2-(4-Methoxybenzoylamino)-2-phenylethyl]-1-ethylpiperidine-4-carboxamide]	
252 to 259 °C	COc1ccc(C(=O)N[C@@H](CNC(=O)C2CCN(C3CCN(C)CC3)CC2)c2ccccc2)cc1 [Example 262, (R)-N-[2-(4-Methoxybenzoylamino)-2-phenylethyl]-1-(1-methylpiperidin-4-yl)piperidine-4-carboxamide]	
